One data set concerns human AML xenografts. The note with it: subcutaneous injections; cited from earlier work.
Data set [1] deals with blast cells in peripheral blood (PB) of AML patients. Nature of the data set: Phase 1/2 study: mobilization of blast cells to peripheral blood after BL-8040 in relapsed or refractory AML patients. The format is in vivo, human. As for the experimental part: In an open-label, single arm, phase 1/2 study, patients diagnosed with AML with relapsed or refractory disease received a once daily subcutaneous (SC) dose of BL-8040 as monotherapy on days 1-2 followed by the same dose of BL-8040 plus Ara-C (1.5 g/m2 for patients ≥60; 3 g/m2 for patients <60) on days 3-7. Six dose levels of BL-8040 (0.5-2.0 mg/kg) were tested in the dose escalation phase with 1.5 mg/kg selected for the expansion phase. Extensive pharmacodynamics (PD) parameters such as the extent of mobilization were assessed during the study. Clinical response to treatment was determined by BM biopsy on day 30.
Measuring Blast-Cell Density in Peripheral Blood (PB) and Bone Marrow (BM)
Bone marrow blast-cell counts were performed using procedures essentially as described by Lee et al. (Int. Jnl. Lab. Hem. 30: 349-364, 2008).
Peripheral blast-cell counts were performed using procedures essentially as described by O'Connor, B. H., A Color Atlas and Instructions Manual of Peripheral Cell Morphology, Lippincot Williams, 1984.
Clinical responses to […] treatment were determined according to the standards of the international working group for AML (Cheson et al., J. Clin. Oncol. 21: 4642-4649, 2003; Döhner et al., Blood 115: 453-474, 2010; and de Greef et al., British Journal of Hematology 128: 184-91, 2005), which are summarized in Table 1 below.

The subject of data set [2] is malignant cells of hematopoietic origin including AML. The note with it: cited from earlier work.
The test system of the next data set is HIV-1 (X4-HIV-1). The note with it: through specific binding to CXCR4; cited from earlier work.

Positions of bridges follow the written chain, without caps; N, C: chain ends. Non-standard residues stand in square brackets, D forms with d. 2Nal = N[C@@H](Cc1ccc2ccccc2c1)C(=O)O; Cit = NC(=O)NCCC[C@H](N)C(=O)O

Take “4F-benzoyl-Arg-Arg-Nal-Cys-Tyr-Cit-Lys-DLys-Pro-Tyr-Arg-Cit-Cys-Arg-NH2 [BL-8040]”: the “growth of human AML xenografts” value in the data set with human AML xenografts was “significantly reduced”. The “ratio of PB blast cell density after treatment to initial density prior to treatment” value in data set [1] (day 2 following treatment with BL-8040, non-responsive patients (SD and PD)) was “no increase was observed”; in data set [1] (day 2 following treatment with BL-8040, responsive patients, CR, prior to cytarabine), 2.1 fold; in data set [1] (day 2 following treatment with BL-8040, responsive patients, CRi, prior to cytarabine), 4.0 fold; in data set [1] (day 3, 8 hr following day 3 injection (after initiation of cytarabine), non-responsive patients (SD and PD)), “no significant increase was observed”; in data set [1] (day 3, 8 hr following day 3 injection (after initiation of cytarabine), responsive patients, CR), 7.0 fold; in data set [1] (day 3, 8 hr following day 3 injection (after initiation of cytarabine), responsive patients, CRi), 4.2 fold. Further, the “ratio of PB blast cell density after treatment to initial density prior to treatment” value in data set [1] (day 3 following initial treatment with BL-8040, non-responsive patients (SD and PD)) is on record as “no significant increase was observed”; in data set [1] (day 3 following initial treatment with BL-8040, responsive patients, CR, prior to cytarabine), 2.1 fold; in data set [1] (day 3 following initial treatment with BL-8040, responsive patients, CRi, prior to cytarabine), 2.9 fold. Moreover, the “increase of PB blast-cell density versus baseline” value in data set [1] (non-responsive patients, after 2 or 3 days following first administration of BL-8040) is listed as “did not increase”; in data set [1] (responsive patients (CR, CRi or CRp), after 2 days following first administration of BL-8040) it was 3.7 fold; in data set [1] (responsive patients (CR, CRi or CRp), after 3 days following first administration of BL-8040) it was 3.8 fold. Moreover, the “cytotoxicity toward malignant cells of hematopoietic origin including AML” value in data set [2] is on record as “CXCR4-dependent preferential cytotoxicity”.
On to “H-Arg-Arg-Nal-Cys-Tyr-Arg-Lys-DLys-Pro-Tyr-Arg-Cit-Cys-Arg-OH (H-RR[2Nal]CYRK[dK]PYR[Cit]CR-OH; disulfide 4-13) [Analog T-140]”, for which the “HIV-1 (X4-HIV-1) entry to T cells” value in the data set on HIV-1 (X4-HIV-1) is listed as “suppress”.

The values are drawn from patent publication US10993985B2, “Methods of treating acute myeloid leukemia” (BioLineRx Ltd., priority 2016, dated 2021).
